Test results taken from patent US10806798B2, “Compound with effects of thrombolysis, free radical scavenging and thrombus-targeting” (Shanghai Lumosa Therapeutics Co., Ltd., priority 2012, dated 2020).
Marks after values point to notes of the source that are not given here. Side chains are listed from the residue outwards. Ends that are not written are not given here.

Columns and labels:
[1] = tested on: thrombus; experiment: In vivo anti-thrombus experiment (arteriovenous cannula with thread); set-up: species or system SD rats; settings: 0.1 μmol/kg by gavage; n = 11
Protocol: SD rats (male, 220 to 230 g) were randomly divided into groups with 11 rats in each group. The rats were fed at a resting state for 1 day and fasted overnight. […] After 30 min, the rats were anesthetized with a 20% urethane solution, and the right carotid artery and the left carotid vein were dissected. A cannula was filled with sodium heparin in normal saline, and one end thereof was inserted into the left vein, while the other end was injected with a certain amount of sodium heparin for anticoagulation with an injector and then inserted into the right artery. Blood flew from the right artery to the left vein through the polyethylene tubing, and the thread attached with thrombus was taken out after 15 min and the weight thereof was recorded. The wet thrombus weight was determined by subtracting the thread weight from the total weight.

[2] = tested on: rats with stroke; experiment: Cerebral infarction volume after immediate treatment of stroke (TTC staining); type: in vivo, SD rats; settings: n = 10
Protocol: After the rats were awake for 24 h and assessed for their degree of damage in neural function in Experimental example 6, they were anesthesized with urethane followed by immediate decapitation and removal of the brain. Brain tissues were kept in a −20° C. refrigerator for 2 h, and coronal sections of about 2 mm were successively sliced from the prefrontal end for a total of 6 sections, and then placed into a 2% TTC solution to incubate in darkness at 37° C. for 30 min. The color change in brain sections was observed: normal brain tissues were stained red by TTC, while ischemic brain tissues, i.e., brain tissues with infracts, appeared in a white color. Photographs were taken by using a digital camera and processed with SPSS statistics software, and the volume of infarction in brain tissues and the volume of normal brain tissues in the coronal sections were calculated.

[3] = tested on: thrombus; experiment: In vivo thrombolysis, rat arteriovenous bypass thrombolysis model; set-up: species or system SD rats; settings: after 1 h, n = 10
Protocol: SD rats (male, 220 to 230 g) were anaesthetized by intraperitoneal injection of a urethane solution at a dosage of 1200 mg/kg. The anaesthetized rats were fixed in a supine position, and the right common carotid artery was dissected, clamped at the proximal end with an arterial clip, and penetrated with a suture at the proximal and distal ends, respectively. The suture at the distal end is clipped tightly by a hemostatic clamp at the fur. Cannulation was performed at the distal end, the arterial clamp was removed, and about 1 ml arterial blood was discharged into a 1 ml eppendorf. 0.1 ml rat arterial blood was injected into a vertically fixed glass tube (15 mm in length, with an inner diameter of 2.5 mm and an outer diameter of 5.0 mm, sealed with a rubber stopper at the bottom), into which was immediately inserted a thrombus immobilization screw made of stainless steel. […] 15 min after the blood was coagulated, the rubber stopper at the bottom of the glass tube was removed, the stem of the thrombus immobilization screw was nipped by forceps, and the thrombus-wrapped thrombus immobilization screw was carefully taken out of the glass tube and then accurately weighed.
A bypass cannula was composed of 3 segments. The middle segment was a polyethylene tubing having a length of 60.0 mm and an inner diameter of 3.5 mm. The segments on both ends were similar polyethylene tubes having a length of 100.0 mm, an inner diameter of 1.0 mm and an outer diameter of 2.0 mm, one end of which was pulled to form a tip, with an outer diameter of 1.0 mm, that could be inserted into the rat carotid artery or vein, and the other end of which was sheathed by a polyethylene tube having a length of 7.0 mm and an outer diameter of 3.5 mm (thickened in order to be inserted into the polyethylene tubing of the middle segment). The inner wall of the 3-segment cannula was entirely silylated (with 1% silicone oil in ethyl ether). The thrombus-wrapped thrombus immobilization screw was placed into the polyethylene tubing of the middle segment, and both ends of the tubing sheathed the thickened ends of the two polyethylene tubes. The cannula was filled with a heparin solution in normal saline (50 IU/kg) through the tip end by using an injector and was ready for use. The trachea of the anaesthetized rat was then dissected and tracheal cannulation was performed. The left external carotid vein of the rat was dissected, and penetrated with a suture at the proximal and distal ends, respectively. An uneven open incision was careful made on the exposed left external carotid vein, and the tip of the bypass cannula prepared as described above was inserted into the proximal end of the open incision in the left external carotid vein, away from the stem of the thrombus immobilization screw in the middle segment of the bypass cannula (which accommodated the accurately weighed thrombus immobilization screw). A precise amount of heparin in saline (50 IU/kg) was injected through the tip at the other end by using an injector. At this moment, without removing the injector from the ethylene tube, the tubing between the injector and the polyethylene tube was clamped with forceps. The blood flow was stopped by clamping the proximal end of the right common carotid artery with an arterial clip, and an uneven open incision was cut carefully across the common carotid artery near the clip. The injector was pulled out of the tip of the polyethylene tube, and the tip of the polyethylene tube was then inserted into the proximal end of the artery open incision. Both ends of the bypass cannula were fixed to the artery or vein with #4 sutures. […]

[4] = tested on: thrombus from rat arterial blood; experiment: In vitro thrombolysis; set-up: species or system SD rats; settings: 2 h at 37° C., n = 6
Protocol: SD rats (male, 350 to 400 g) were anaesthetized by intraperitoneal injection of a urethane solution at a dosage of 1200 mg/kg. The anaesthetized rats were fixed in a supine position, and the right common carotid artery was dissected, clamped at the proximal end with an arterial clip, and penetrated with a suture at the proximal and distal ends, respectively. The suture at the distal end is clipped tightly by a hemostatic clamp at the fur. Cannulation was performed at the distal end, the artery clamp was removed, and the total arterial blood was discharged into a 50 ml container previously treated with silicone oil. […] rat arterial blood was injected into a vertically fixed glass tube (20 mm in length, with an inner diameter of 4 mm and an outer diameter of 5 mm, sealed with a rubber stopper at the bottom), into which was immediately inserted a thrombus immobilization screw made of stainless steel. […] 40 min after the blood was coagulated, the rubber stopper at the bottom of the glass tube was removed, the stem of the thrombus immobilization screw was nipped by forceps, and the thrombus-wrapped thrombus immobilization screw was carefully taken out from the glass tube. The screw was then suspended and dipped in triple-distilled water to remove excessive blood, and accurately weighed after 1 h. The thrombus was suspended in 8 mL of normal saline, or a solution of compounds Ia-Il in normal saline (at a concentration of 100 nM), or a solution of ARPAK (SEQ. ID NO. 4), GRPAK (SEQ. ID NO. 5), RPAK (SEQ. ID NO. 3) or PAK in normal saline (at a concentration of 100 nM), or a solution of urokinase in normal saline (100 IU/mL), then shaked at 37° C. in a thermostatic shaker (63 r/min), and removed after 2 h and accurately weighed to determine the weight of the thrombus.

[5] = tested on: euglobulin clot; experiment: Euglobulin clot lysis; type: biochemical, Pig; settings: after 4 h, n = 3
Protocol: Pig blood was taken and mixed with 3.8% sodium citrate in a volume ratio of 9:1, immediately centrifuged at 3000 r/min for 10 min, and platelet-poor plasma was separated. 2 mL platelet-poor pig plasma and 36 mL ultrapure water were added into a 50 mL centrifuge tube. In each tube, 0.4 mL acetic acid (1%) was added and thoroughly mixed, and the tube was placed in a 4° C. refrigerator for 10 min and then centrifuged at 3000 r/min for 10 min. The centrifuge tubes were inverted, and then the inner wall of the tubes was dried using a filter paper after the liquid was drained. The euglobuin pellets resulting from centrifugation was freeze-dried for about 40 min and scratched out. About 35 mg euglobuin was taken and dissolved in 7 ml borax buffer (pH 9.28). The euglobuin were mostly dissolved after 1 h, into which 0.7 mL CaCl2 solution (25 mM) was added, and immediately plated on a 10×10 cm glass plate with a thickness of about 1 mm. After clot formation, 10 μL normal saline, or 10 μL of a solution of one of compounds Ia to Il in normal saline (1 mM) or 10 μL of a urokinase solution in normal saline (0.8 mg/mL) was pipetted and spotted onto the clot plate, with an interval between every two drops more than 1.5 cm, and each sample was spotted 3 times.

Row | Substance | Wet weight of thrombus (Mean ± SD mg) [1] [mg] | Percentage of infarction volume (Mean ± SD %) [2] [%] | Weight reduction in thrombus (Mean ± SD mg) ([3]; 0.1 μmol/kg) [mg] | Weight reduction in thrombus (Mean ± SD mg) ([4]; 100 nM) [mg] | Diameter (Mean ± SD mm) of euglobulin clot lysis ([5]; 10 μL of 1 mM solution) [mm] | Percentage of infarction volume (Mean ± SD %) ([2]; urokinase 20000 IU/kg, immediate treatment) | Weight reduction in thrombus (Mean ± SD mg) ([3]; urokinase 20000 IU/kg) | Weight reduction in thrombus (Mean ± SD mg) ([4]; urokinase 100 IU/mL) | Diameter (Mean ± SD mm) of euglobulin clot lysis ([5]; 10 μL of urokinase 0.8 mg/mL) [mm]
1 | 1,3-dioxo-2-{4′-oxyacetyl-[N^ω-(Gly-Arg-Pro-Ala-Lys)-Lys-Arg-Gly-Asp-Phe]phenyl}-4,4,5,5-tetramethylimidazoline [If] | 17.99 ± 2.47 | 7.47 ± 1.31 | 15.29 ± 3.36 | 15.29 ± 3.36 | 4.5 | – | – | – | –
2 | 1,3-dioxo-2-{4′-oxyacetyl-[N^ω-(Pro-Ala-Lys)-Lys-Arg-Gly-Asp-Val]phenyl}-4,4,5,5-tetramethylimidazoline (K([Lys-Ala-Pro])RGDV; not fully specified (N-terminus); also: 4′-oxyacetylphenyl-1,3-dioxo-4,4,5,5-tetramethylimidazoline (nitronyl nitroxide) conjugate, attachment amine not clear) [Ik] | 22.25 ± 2.25 | 7.86 ± 1.02 | 15.47 ± 2.61 | 25.00 ± 1.54 | 4.5 | – | – | – | –
3 | 1,3-dioxo-2-{4′-oxyacetyl-[N^ω-(Ala-Arg-Pro-Ala-Lys)-Lys-Arg-Gly-Asp-Ser]phenyl}-4,4,5,5-tetramethylimidazoline [Ia] | 24.32 ± 2.10 | 7.21 ± 0.82 | 15.39 ± 3.19 | 28.50 ± 2.59 | 4.0 | – | – | – | –
4 | 1,3-dioxo-2-{4′-oxyacetyl-[N^ω-(Gly-Arg-Pro-Ala-Lys)-Lys-Arg-Gly-Asp-Ser]phenyl}-4,4,5,5-tetramethylimidazoline | 19.46 ± 1.84 | 8.21 ± 1.91 | 14.17 ± 3.55 | 14.17 ± 3.55 | 5.2 | – | – | – | –
5 | 1,3-dioxo-2-{4′-oxyacetyl-[N^ω-(Arg-Pro-Ala-Lys)-Lys-Arg-Gly-Asp-Ser]phenyl}-4,4,5,5-tetramethylimidazoline [Ig] | 17.89 ± 2.05 | 6.40 ± 0.28 | 16.35 ± 2.42 | 27.83 ± 2.56 | 5.2 | – | – | – | –
6 | 1,3-dioxo-2-{4′-oxyacetyl-[N^ω-(Ala-Arg-Pro-Ala-Lys)-Lys-Arg-Gly-Asp-Val]phenyl}-4,4,5,5-tetramethylimidazoline [Ib] | 20.14 ± 2.45 | 7.13 ± 0.83 | 14.35 ± 2.95 | 28.17 ± 2.31 | 5.2 | – | – | – | –
7 | 1,3-dioxo-2-{4′-oxyacetyl-[N^ω-(Pro-Ala-Lys)-Lys-Arg-Gly-Asp-Ser]phenyl}-4,4,5,5-tetramethylimidazoline (K([Lys-Ala-Pro])RGDS; not fully specified (N-terminus); also: 4′-oxyacetylphenyl-1,3-dioxo-4,4,5,5-tetramethylimidazoline (nitronyl nitroxide) conjugate, attachment amine not clear) [Ij] | 19.45 ± 1.79 | 6.84 ± 0.82 | 14.89 ± 1.84 | 26.16 ± 3.15 | 4.0 | – | – | – | –
8 | 1,3-dioxo-2-{4′-oxyacetyl-[N^ω-(Arg-Pro-Ala-Lys)-Lys-Arg-Gly-Asp-Val]phenyl}-4,4,5,5-tetramethylimidazoline [Ih] | 18.24 ± 1.89 | 7.35 ± 1.14 | 15.37 ± 1.82 | 29.33 ± 3.01 | 4.2 | – | – | – | –
9 | 1,3-dioxo-2-{4′-oxyacetyl-[N^ω-(Ala-Arg-Pro-Ala-Lys)-Lys-Arg-Gly-Asp-Phe]phenyl}-4,4,5,5-tetramethylimidazoline [Ic] | 20.50 ± 2.26 | 7.40 ± 1.65 | 15.79 ± 3.07 | 27.33 ± 2.07 | 3.8 | – | – | – | –
10 | urokinase | – | – | – | – | – | 11.00 ± 2.42 ^b % | 18.02 ± 2.32^a mg | 58.33 ± 4.08^a mg | 10.7
